Results published in patent publication US11376308B2, “Use of FKBP-L polypeptides and nucleic acids for the treatment of obesity” (The Queen's University of Belfast, priority 2016, dated 2022).
“Also recorded” adds a separate entry of the source.

Key:
NFkB = assay: LPS-induced NFkB phosphorylation in THP-1 monocytes (western blot); type: cell-based; settings: 100 ng/ml LPS, lysates 6 hour after treatment
Protocol: FIG. 12 illustrates the FKBP-L peptide, AD-01 (SEQ ID NO: 10), abrogates LPS-induced activation of NFkB in THP-1 monocytes—Cells were stimulated with 100 ng of LPS which results in activation of NFkB phosphorylation.
(§1) THP1 cells were treated with 100 ng/ml LPS and cell lysates harvested and subjected to western blotting as described in Example 4, using primary antibody against pSER36 NFkB (at a 1:1000 dilution) and a 1:5000 dilution of ECL anti rabbit IgG HRP linked whole secondary antibody (GE Healthcare UK Ltd.). To measure IL-1β levels THP1 cells were treated with 1000 ng/ml LPS±AD-01 and conditioned cell culture medium was collected 24 h later and assessed using an IL-1β ELISA.

IL-1β = assay: LPS-induced IL-1β secretion in THP-1 monocytes (ELISA); type: cell-based; settings: 1000 ng/ml LPS, conditioned medium 24 h later
Protocol: FIG. 13 illustrates the FKBP-L peptide, AD-01, abrogates LPS-induced activation of IL-1β in THP-1 monocytes—Cells were stimulated with 1000 ng of LPS.
as §1

[1] = High fat diet weight gain study in Fkbpl+/- and Fkbpl+/+ mice, ALM201 vs PBS; type: in vivo; settings: ALM201 0.3 mg/kg subcutaneously 5 days per week
Source text: (§2) For the high fat diet study, 40 age and sex matched mice were chosen with an age range of 6-10 weeks at the experimental start date. Mice were randomised into four groups: PBS Fkbpl^+/−, PBS Fkbpl^+/+, ALM201 Fkbpl^+/− and ALM201 Fkbpl^+/+. Power calculations were utilised to predict the number of mice needed to show statistical significance. Taking group 1 mean weight to be 25 g and group 2 mean weight to be 45 g, with a standard deviation of 13 gives a sample size of eight mice per group when powered to 0.8, with α=0.05. 10 mice per treatment group were used. All mice were weighed at experimental start date, biweekly for the first three weeks to ensure health, and weekly thereafter. Mice were solely fed a high fat diet comprising 60% fat (Cat no. F3282, Dates and, USA). Food provided was weighed biweekly for three weeks, then weekly, to ensure equal food provisions between boxes, with an allowance of 5 g per mouse per day assumed. ALM201 was reconstituted in PBS, stored at −20° C., and injected subcutaneously at a dose of 0.3 mg/kg, 5 days per week.

leptin = assay: Ray Biotech cytokine array on spent medium of MDA231 cells: leptin; type: cell-based; settings: spent medium of MDA231 cells after exposure to ALM201
Source text: (§3) FIGS. 7A and 7B illustrate the level of secretion of leptin, IL8 and TIMP Secretion after treatment with FKBP-L's therapeutic peptide, ALM201—A Ray Biotech cytokine array was used to measure cytokines in the spent medium of MDA231 cells after exposure to ALM201. Blots were then quantitated by densitometric analysis using Ray Biotech software.
(§4) A Ray Biotech cytokine array was used to measure cytokines in the spent medium of MDA231 cells after exposure to ALM201. Blots were then quantitated by densitometric analysis using Ray Biotech software. IL8 and TIMP1 levels were then validated by ELISA in two or three independent repeats. A reduction in these cytokines would reduce the obesity phenotype.

TIMP1 = assay: Ray Biotech cytokine array on spent medium of MDA231 cells, validated by ELISA: TIMP1; type: cell-based; settings: spent medium of MDA231 cells after exposure to ALM201
Source text: as §3, §4

IL-8 = assay: Ray Biotech cytokine array on spent medium of MDA231 cells, validated by ELISA: IL-8; type: cell-based; settings: spent medium of MDA231 cells after exposure to ALM201
Source text: as §3, §4

SIRT1 = SIRT1 protein levels following ALM201 treatment (western blot); type: cell-based; settings: FIG. 6D
Protocol: For assessing protein levels: Cell lysates were prepared in RIPA buffer from MDA-MB-231, A3, MCF-7 and D2 cells and subjected to Western Blotting. The membrane was then probed with a 1:1000 dilution of rabbit FKBP-L IgG polyclonal primary antibody (Proteintech UK, cat: 10060-1-AP), 1:1000 rabbit SIRT1 IgG monoclonal primary antibody (Abcam, UK cat: ab32441) in 3% blocking solution overnight on a rocker at 4° C. The membrane was washed with PBS-Tween and then PBS for 5 min each, and was probed for an hour with a 1:5000 dilution of ECL anti rabbit IgG HRP linked whole secondary antibody (GE Healthcare UK Ltd.) Membranes were washed and developed as in section 2.2.2.11.3. Membranes were then stripped with Restore™ Western Blot Stripping Buffer (Thermo Scientific) for 10 min, washed, re-probed with rabbit GAPDH primary antibody (Sigma-Aldrich), and a 1:5000 dilution of ECL anti rabbit IgG HRP linked whole secondary antibody (GE Healthcare UK Ltd.) and developed as above. SIRT1 was identified as a band around 110 kDa, FKBP-L at 42 kDa.

[2] = Oral Glucose Tolerance Test (OGTT) in high fat diet fed mice given ALM201; type: in vivo
Protocol: An OGTT was performed by fasting the mice for 4 h, taking baseline blood glucose, administering 40% D-glucose, and recording two further blood glucose readings at 30 and 60 min.
as §2

Substance | LPS-induced activation of NFkB (phosphorylation) (NFkB) | LPS-induced IL-1β secretion (IL-1β) | weight gain ([1]; Fkbpl+/- mice, 0.3 mg/kg) | weight gain ([1]; wild-type (Fkbpl+/+) mice) | secreted leptin levels (leptin) | secreted TIMP1 levels (TIMP1) | secreted IL-8 levels (IL-8) | SIRT1 protein levels (SIRT1) | blood glucose / glucose intolerance (OGTT) ([2]; Fkbpl+/- mice given ALM201 vs Fkbpl+/- mice given PBS, readings at 30 and 60 min after 40% glucose) | difference in blood glucose levels between Fkbpl+/- and Fkbpl+/+ mice (OGTT) ([2]; both genotypes administered ALM201)
NH2-QIRQQPRDPPTETLELEVSPDPAS-OH (H-QIRQQPRDPPTETLELEVSPDPAS-OH) [AD-01] | inhibit; also recorded: abrogated that increase | dramatic reduction; also recorded: significantly abrogated |  |  |  |  |  |  |  | 
NH2-IRQQPRDPPTETLELEVSPDPAS-OH (H-IRQQPRDPPTETLELEVSPDPAS-OH) [ALM201] |  |  | significantly reduced; also recorded: normalises the mouse weight gain; also recorded: reduces and normalises weight gain | partially prevented weight gain | reduce | reduce | reduce | increased SIRT1 levels | significantly reduced; also recorded: significantly lower blood glucose readings | no significant difference
